Experimental data taken from patent publication US20020082273A1, “Agents for use in the treatment of alzheimer's disease” (priority 1998, published 2002).

Assays:
[1] = Metal reduction assay, Fe^3+ to Fe^2+; assay type: biochemical; conditions: 10 μM Fe^3+, PBS pH 7.4, 1 hr 37° C.
Protocol: (§1) The metal reduction assay was performed using a 96-well microtiter plate (Costar) based upon a modification of established protocols (Landers, J. W., et al., Amer. Clin. Path. 29:590 (1958); Landers, J. W., et al., Clinica Chimica Acta 3:329 (1958)). Polypeptides (10 μM) or Vitamin C (100 μM), metal ions (10 μM, Fe(NO3)3 or Cu(NO3)2), and reduced metal ion indicators, bathophenanthrolinedisulfonic acid (BP, for Fe^2+, Sigma, 200 μM) or bathocuproinedisulfonic acid (BC, for Cu^+, Sigma, 200 μM), were coincubated in phosphate buffered saline (PBS), pH 7.4, for 1 hr at 37° C. The metal ion solutions were prepared by direct dilution in the buffer from their aqueous stocks purchased from National Institute of Standards and Technology (NIST). Absorbances were then measured at 536 mn (Fe^2+-BP complex) and 483 nm (Cu^+-BC complex), respectively, using a 96-well plate reader (SPECTRAmax 250, Molecular Devices, CA). In control samples, both metal ion and indicator were present to determine the background buffer signal. As a further control, both metal ion and peptide were present in the absence of indicator to estimate the contribution of light scattering due to turbidity to the absorbance reading at these wavelengths. The net absorbances (ΔA) at 536 nm or 483 nm were obtained by deducting the absorbances from these controls from the absorbances generated by the peptide and metal in the presence of the respective indicator.
The concentrations of reduced metal ions (Fe^2+ or Cu^+) were quantified based on the formula: Fe^2+ or Cu^+ (˜M)=A*10^6/(L*M), where L is the measured equivalent vertical pathlength for a well of 300 μL volume as described in the instrument's specifications manual (0.856 cm for Fe^2+; 1.049 cm for Cu^+); M is the known molecular absorbance (M^−1 cm^−1) which is 7124 (for Fe^2+-BP complex) or 2762 (for Cu^+-BC complex).

[2] = Metal reduction assay, Cu^2+ to Cu^+; assay type: biochemical; conditions: 10 μM Cu^2+, PBS pH 7.4, 1 hr 37° C.
Protocol: Aβ (10 μM in PBS, pH 7.4 or 6.8, as shown) was incubated for 30 minutes (37° C.) in the presence of Cu^2+10 μM ±Zn^2+ 10 μM). […] levels (n=3, ±SD) were assayed against a standard curve.
as §1, with “Polypeptides” for “The metal reduction assay was performed using a 96-well microtiter plate (Costar) based upon a modification of established protocols (Landers, J. W., et al., Amer. Clin. Path. 29:590 (1958); Landers, J. W., et al., Clinica Chimica Acta 3:329 (1958)). Polypeptides”, “Absorbances were then measured at 536 mn (Fe^2+-BP complex) and 483 nm (Cu^+-BC complex), respectively, using a 96-well plate reader (SPECTRAmax 250, Molecular Devices, CA).” left out

[3] = Cu^2+-induced SDS-resistant polymerization of Aβ peptides, western blot image analysis; assay type: biochemical, human; conditions: for conversion of monomer to dimer / conversion of monomer to trimer: Cu^2+ 30 μM
Protocol: Following incubation (37° C.), aliquots of each reaction (2 ng peptide) were collected at 0 d, 1 d, 3 d and 5 d and western blotted using anti-Aβ monoclonal antibody 8E10 (FIG. 9). Migration of the molecular size markers are indicated (kDa). […] It should be noted that other means of visualizing and/or determining the presence or absence of polymerization other than western blot analysis may be used. Such other means include but are not limited to density sedimentation by centrifugation of the samples.
The generation of SDS-resistant Aβ polymers by metal ions was tested by incubating Cu^2+ (30 μM) or Zn^2+ (30 μM) at pH 6.6, 7.4 and 9.0 with Aβ1-40.
(0-30 μM) at pH 7.4 and 6.6 and the samples analyzed by Western blot and the signal quantitated using the Fluoro-S Image Analysis System (Bio-Rad, Hercules, Calif.) as previously described.

Substance: Aβ1-40: synthetic human Aβ peptide, residues 1-40
- reduction of available Fe^3+ [1]: 12%
- reduction of available Cu^2+ [2]: 60%
- conversion of monomer to dimer ([3]; pH 6.6, 5 d): 29%
- conversion of monomer to trimer ([3]; pH 6.6, 5 d): 2%
- conversion of monomer to dimer ([3]; pH 7.4, 5 d): 42%
- conversion of monomer to trimer ([3]; pH 7.4, 5 d): 9%
- peptide converted to SDS-resistant dimer ([3]; no added metal, pH 6.6, 7.4 or 9.0, 5 d): Less than 4%
- SDS-resistant polymers: Dimer ([3]; pH 6.6, [Cu^2+] 0): 2.1
- SDS-resistant polymers: Monomer ([3]; pH 6.6, [Cu^2+] 0): 97.9
- SDS-resistant polymers: Pentamer ([3]; pH 6.6, [Cu^2+] 0): 0
- SDS-resistant polymers: Tetramer ([3]; pH 6.6, [Cu^2+] 0): 0
- SDS-resistant polymers: Trimer ([3]; pH 6.6, [Cu^2+] 0): <0.1
- SDS-resistant polymers: Dimer ([3]; pH 6.6, [Cu^2+] 0.5): 2.2
- SDS-resistant polymers: Monomer ([3]; pH 6.6, [Cu^2+] 0.5): 97.6
- SDS-resistant polymers: Pentamer ([3]; pH 6.6, [Cu^2+] 0.5): 0
- SDS-resistant polymers: Tetramer ([3]; pH 6.6, [Cu^2+] 0.5): 0
- SDS-resistant polymers: Trimer ([3]; pH 6.6, [Cu^2+] 0.5): 0.2
- SDS-resistant polymers: Dimer ([3]; pH 6.6, [Cu^2+] 1): 7.3
- SDS-resistant polymers: Monomer ([3]; pH 6.6, [Cu^2+] 1): 92.6
- SDS-resistant polymers: Pentamer ([3]; pH 6.6, [Cu^2+] 1): 0
- SDS-resistant polymers: Tetramer ([3]; pH 6.6, [Cu^2+] 1): 0
- SDS-resistant polymers: Trimer ([3]; pH 6.6, [Cu^2+] 1): 0.1
- SDS-resistant polymers: Dimer ([3]; pH 6.6, [Cu^2+] 5): 9.8
- SDS-resistant polymers: Monomer ([3]; pH 6.6, [Cu^2+] 5): 90.1
- SDS-resistant polymers: Pentamer ([3]; pH 6.6, [Cu^2+] 5): 0
- SDS-resistant polymers: Tetramer ([3]; pH 6.6, [Cu^2+] 5): 0
- SDS-resistant polymers: Trimer ([3]; pH 6.6, [Cu^2+] 5): 0.1
- SDS-resistant polymers: Dimer ([3]; pH 6.6, [Cu^2+] 10): 16.1
- SDS-resistant polymers: Monomer ([3]; pH 6.6, [Cu^2+] 10): 79.4
- SDS-resistant polymers: Pentamer ([3]; pH 6.6, [Cu^2+] 10): 0
- SDS-resistant polymers: Tetramer ([3]; pH 6.6, [Cu^2+] 10): 0
- SDS-resistant polymers: Trimer ([3]; pH 6.6, [Cu^2+] 10): 4.5
- SDS-resistant polymers: Dimer ([3]; pH 6.6, [Cu^2+] 30): 13.2
- SDS-resistant polymers: Monomer ([3]; pH 6.6, [Cu^2+] 30): 74.5
- SDS-resistant polymers: Pentamer ([3]; pH 6.6, [Cu^2+] 30): 0
- SDS-resistant polymers: Tetramer ([3]; pH 6.6, [Cu^2+] 30): 0
- SDS-resistant polymers: Trimer ([3]; pH 6.6, [Cu^2+] 30): 12.2
- increase in dimerization ([3]; pH 6.6, [Cu^2+] increased from 0.5 to 1 μM): over 3 fold
- SDS-resistant polymers: Dimer ([3]; pH 7.4, [Cu^2+] 0): 3.2
- SDS-resistant polymers: Monomer ([3]; pH 7.4, [Cu^2+] 0): 96.8
- SDS-resistant polymers: Pentamer ([3]; pH 7.4, [Cu^2+] 0): 0
- SDS-resistant polymers: Tetramer ([3]; pH 7.4, [Cu^2+] 0): 0
- SDS-resistant polymers: Trimer ([3]; pH 7.4, [Cu^2+] 0): <0.1
- SDS-resistant polymers: Dimer ([3]; pH 7.4, [Cu^2+] 0.5): 4.9
- SDS-resistant polymers: Monomer ([3]; pH 7.4, [Cu^2+] 0.5): 94.8
- SDS-resistant polymers: Pentamer ([3]; pH 7.4, [Cu^2+] 0.5): 0
- SDS-resistant polymers: Tetramer ([3]; pH 7.4, [Cu^2+] 0.5): 0
- SDS-resistant polymers: Trimer ([3]; pH 7.4, [Cu^2+] 0.5): 0.3
- SDS-resistant polymers: Dimer ([3]; pH 7.4, [Cu^2+] 1): 5.9
- SDS-resistant polymers: Monomer ([3]; pH 7.4, [Cu^2+] 1): 93.6
- SDS-resistant polymers: Pentamer ([3]; pH 7.4, [Cu^2+] 1): 0
- SDS-resistant polymers: Tetramer ([3]; pH 7.4, [Cu^2+] 1): 0
- SDS-resistant polymers: Trimer ([3]; pH 7.4, [Cu^2+] 1): 0.6
- SDS-resistant polymers: Dimer ([3]; pH 7.4, [Cu^2+] 5): 14.2
- SDS-resistant polymers: Monomer ([3]; pH 7.4, [Cu^2+] 5): 84.3
- SDS-resistant polymers: Pentamer ([3]; pH 7.4, [Cu^2+] 5): 0
- SDS-resistant polymers: Tetramer ([3]; pH 7.4, [Cu^2+] 5): 0
- SDS-resistant polymers: Trimer ([3]; pH 7.4, [Cu^2+] 5): 1.5
- SDS-resistant polymers: Dimer ([3]; pH 7.4, [Cu^2+] 10): 13.2
- SDS-resistant polymers: Monomer ([3]; pH 7.4, [Cu^2+] 10): 85.2
- SDS-resistant polymers: Pentamer ([3]; pH 7.4, [Cu^2+] 10): 0
- SDS-resistant polymers: Tetramer ([3]; pH 7.4, [Cu^2+] 10): 0
- SDS-resistant polymers: Trimer ([3]; pH 7.4, [Cu^2+] 10): 1.6
- SDS-resistant polymers: Dimer ([3]; pH 7.4, [Cu^2+] 30): 19.1
- SDS-resistant polymers: Monomer ([3]; pH 7.4, [Cu^2+] 30): 76.2
- SDS-resistant polymers: Pentamer ([3]; pH 7.4, [Cu^2+] 30): 0
- SDS-resistant polymers: Tetramer ([3]; pH 7.4, [Cu^2+] 30): 0
- SDS-resistant polymers: Trimer ([3]; pH 7.4, [Cu^2+] 30): 4.7
